The values below come from patent publication US4302461A, “Antiinflammatory 5-substituted-2,3-diarylthiophenes” (E. I. Du Pont de Nemours and Company, priority 1980, dated 1981).

Each structure is given as a SMILES string. Where two headings read alike, the source gives them in different places.

In general, ED50 refers to the dose at which the effect has come halfway, by size or by number of responders.

The experiment concerns Established Adjuvant-Induced Arthritis in Rats. Put plainly: Established Adjuvant-Induced Arthritis in Rats (uninjected left hind paw volume). To be noted: for inhibition in vivo at 20 mg/kg: Daily Oral Dose 20 mg/kg; for inhibition in vivo at 27 mg/kg: Daily Oral Dose 27 mg/kg; for ED50: 168 h, read-out: ED50 % Decrease From Control Paw Volume. It counts as in vivo, Lewis (Wistar) male rats.

The mark [1] stands for this setting: Rattus norvegicus, 504 h, once daily for 7 days (days 14-20), paw volume on day 21, read-out: Percent Decrease from Control Paw Volume.
Setting [2] is: Rattus norvegicus, oral gavage once daily for 7 days (days 14-20), estimated by inspection of dose-response regression lines.

Consider `FC(F)(F)Sc1cc(-c2ccccc2)c(-c2ccccc2)s1` [Example 5], for which, under setting [1], the inhibition in vivo at 20 mg/kg was 33%.

`O=S(=O)(c1cc(-c2ccc(F)cc2)c(-c2ccc(F)cc2)s1)C(F)(F)C(F)F` [Example 12]: the inhibition in vivo at 27 mg/kg under setting [1] worked out at 34%.

For `COc1ccc(-c2cc(SC(F)(F)F)sc2-c2ccc(OC)cc2)cc1` [Example 6], under setting [1], the inhibition in vivo at 20 mg/kg was found to be 32%.

For the compound `COc1ccc(-c2cc(S(=O)(=O)C(F)(F)C(F)F)sc2-c2ccc(OC)cc2)cc1` [Example 11], the inhibition in vivo at 27 mg/kg under setting [1] stood at 23%.

For `Fc1ccc(-c2sc(SC(F)(F)F)cc2-c2ccc(Cl)cc2)cc1` [Example 7], under setting [2], the ED50 is 4 mg/kg.

For `COc1ccc(-c2cc(SC(F)(F)C(F)F)sc2-c2ccc(OC)cc2)cc1` [Example 4, 2,3-bis(4-Methoxyphenyl)-5-(1,1,2,2-tetrafluoroethylthio)thiophene], under setting [1], the inhibition in vivo at 27 mg/kg is 11%. The “antiinflammatory activity (statistical significance)” value (at the dose level tested) is on record as “did not exhibit statistically significant antiinflammatory activity”.

Consider `Fc1ccc(-c2cc(SC(F)(F)F)sc2-c2ccc(F)cc2)cc1` [Example 1, 2,3-bis(4-Fluorophenyl)-5-(trifluoromethylthio)thiophene], for which, under setting [2], the ED50 is 3.5 mg/kg.

Turning to `Fc1ccc(-c2cc(SC(F)(F)F)sc2-c2ccc(Cl)cc2)cc1` [Example 9], the ED50 under setting [2] is 10 mg/kg.

As to `O=S(=O)(c1cc(-c2ccc(F)cc2)c(-c2ccc(F)cc2)s1)C(F)(F)F` [Example 2, 2,3-bis(4-Fluorophenyl)-5-(trifluoromethylsulfonyl)thiophene], the 50% effective dose (ED50) under setting [2] is 10 mg/kg.

As for `CSc1cc(-c2ccc(F)cc2)c(-c2ccc(F)cc2)s1` [Example 8], the inhibition in vivo at 27 mg/kg under setting [1] came to 25%.

For the compound `CCCCCCSc1cc(-c2ccc(OC)cc2)c(-c2ccc(OC)cc2)s1` [Example 20], the inhibition in vivo at 81 mg/kg (Rattus norvegicus, 504 h, Daily Oral Dose 81 mg/kg, once daily for 7 days (days 14-20), paw volume on day 21, read-out: Percent Decrease from Control Paw Volume) came to 39%.

On to `CSc1ccc(-c2cc(SC(F)(F)F)sc2-c2ccc(F)cc2)cc1` [Example 24], for which the ED50 under setting [2] is 0.15 mg/kg.

For the compound `COc1ccc(-c2cc(SC)sc2-c2ccc(OC)cc2)cc1` [Example 3, 2,3-bis(4-Methoxyphenyl)-5-(methylthio)thiophene], the inhibition in vivo at 27 mg/kg under setting [1] was determined as 43%.

With `CCCCC1C(=O)N(c2ccccc2)N(c2ccccc2)C1=O` [Phenylbutazone, reference compound], the ED50 under setting [2] is 10 mg/kg.

Regarding `COc1ccc(-c2cc(SC(F)(F)F)sc2-c2ccc(S(C)(=O)=O)cc2)cc1` [Example 21], the ED50 under setting [2] was 9 mg/kg.

`CSc1ccc(-c2sc(SC(F)(F)F)cc2-c2ccc(F)cc2)cc1` [Example 22]: the median effective dose (ED50) under setting [2] is 0.4 mg/kg.

Turning to `COc1ccc2c(c1)c(CC(=O)O)c(C)n2C(=O)c1ccc(Cl)cc1` [Indomethacin, reference compound], the ED50 (Rattus norvegicus, po) came out at 0.25 mg/kg.

On to `Fc1ccc(-c2cc(SC(F)(F)C(F)F)sc2-c2ccc(F)cc2)cc1` [Example 10], for which the inhibition in vivo at 27 mg/kg under setting [1] stood at 28%.

`CC(=O)Oc1ccccc1C(=O)O` [Aspirin, reference compound]: the ED50 (Rattus norvegicus, po) is 270 mg/kg.
